Measurements: patent publication US20260262643A1, “HERBICIDAL BENZOXAZINES” (FMC CORPORATION, priority 2022, published 2026)

Assays:
[1] = tested on: barnyardgrass; assay: Test D flooded paddy test; type: in vivo, Echinochloa crus-galli; details: 250 g ai/ha, applied to paddy water, visual rating after 13 to 14 days, scale 0 to 100 (0 no effect, 100 complete control)
How it was run: (§1)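 Visual ratings from 0, meaning no effect, to 100, meaning complete control, were assigned against untreated controls 13 to 14 days after compounds were added to the floodwater of pots kept 3 cm deep, with plants at the 2-leaf stage.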

[2] = tested on: soybean; assay: Test C preemergence; type: in vivo, Glycine max
How it was run: (§2)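 Test material, in non-phytotoxic solvent with surfactant, was sprayed on the soil directly after seeding (preemergence) or on young plants of 2–10 cm with one to two leaves (postemergence). Greenhouse, 10 days; 0–100 visual control scale.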

[3] = tested on: galium; assay: Test C postemergence; type: in vivo, Galium aparine; details: 10 days, 0 to 100 scale (0 no effect, 100 complete control)
How it was run: as §2

[4] = tested on: oat, wild; assay: Test C preemergence; type: in vivo, Avena fatua
How it was run: as §2

[5] = tested on: kochia; assay: Test C postemergence; type: in vivo, Bassia scoparia; details: 10 days, 0 to 100 scale (0 no effect, 100 complete control)
How it was run: as §2

[6] = tested on: kochia; assay: Test C preemergence; type: in vivo, Bassia scoparia
How it was run: as §2

[7] = tested on: barnyardgrass; assay: Test C postemergence; type: in vivo, Echinochloa crusgalli; details: 10 days, 0 to 100 scale (0 no effect, 100 complete control)
How it was run: as §2

[8] = tested on: horseweed; assay: Test C postemergence; type: in vivo, Erigeron canadensis; details: 10 days, 0 to 100 scale (0 no effect, 100 complete control)
How it was run: as §2

[9] = tested on: sedge, umbrella; assay: Test D flooded paddy test; type: in vivo, Cyperus difformis; details: 250 g ai/ha, applied to paddy water, visual rating after 13 to 14 days, scale 0 to 100 (0 no effect, 100 complete control)
How it was run: as §1

[10] = tested on: blackgrass; assay: Test C postemergence; type: in vivo, Alopecurus myosuroides; details: 10 days, 0 to 100 scale (0 no effect, 100 complete control)
How it was run: as §2

[11] = tested on: ragweed; assay: Test C postemergence; type: in vivo, Ambrosia artemisiifolia; details: 10 days, 0 to 100 scale (0 no effect, 100 complete control)
How it was run: as §2

[12] = tested on: barnyardgrass; assay: Test C preemergence; type: in vivo, Echinochloa crusgalli
How it was run: as §2

[13] = tested on: wheat; assay: Test C preemergence; type: in vivo, Triticum aestivum
How it was run: as §2

[14] = tested on: oat, wild; assay: Test C postemergence; type: in vivo, Avena fatua; details: 10 days, 0 to 100 scale (0 no effect, 100 complete control)
How it was run: as §2

[15] = tested on: wheat; assay: Test C postemergence; type: in vivo, Triticum aestivum; details: 10 days, 0 to 100 scale (0 no effect, 100 complete control)
How it was run: as §2

[16] = tested on: ryegrass, Italian; assay: Test C postemergence; type: in vivo, Lolium multiflorum; details: 10 days, 0 to 100 scale (0 no effect, 100 complete control)
How it was run: as §2

[17] = tested on: ragweed; assay: Test C preemergence; type: in vivo, Ambrosia artemisiifolia
How it was run: as §2

[18] = tested on: blackgrass; assay: Test C preemergence; type: in vivo, Alopecurus myosuroides
How it was run: as §2

[19] = tested on: foxtail, giant; assay: Test C preemergence; type: in vivo, Setaria faberi
From the text: (§3) Seeds of plant species selected from barnyardgrass (Echinochloa crusgalli), blackgrass (Alopecurus myosuroides), corn (Zea mays), foxtail, giant (giant foxtail, Setaria faberi), green foxtail (Setaria viridis), goosegrass (Eleusine indica), kochia (Bassia scoparia), oat, wild (wild oat, Avena fatua), pigweed, palmer (palmer amaranth, palmer pigweed, Amaranthus palmeri), Pigweed, Redroot (redroot pigweed, Amaranthus retroflexus), ragweed (common ragweed, Ambrosia artemisiifolia), ryegrass, Italian ([…] ryegrass, Lolium multiflorum), soybean (Glycine max), and wheat (Triticum aestivum) were planted into a blend of loam soil and sand and treated preemergence with a directed soil spray using test chemicals formulated in a non-phytotoxic solvent mixture which included a surfactant. At the same time, plants selected from these crops and weed species and also galium (catchweed bedstraw, Galium aparine) and horseweed (Erigeron canadensis) were planted in pots containing the same blend of loam soil and sand and treated with postemergence applications of test chemicals formulated in the same manner. Plants ranged in height from 2 to 10 cm and were in the one- to two-leaf stage for the postemergence treatment. Treated plants and untreated controls were maintained in a greenhouse for 10 days, after which time all treated plants were compared to untreated controls and visually evaluated for injury. Plant response ratings, summarized in Table C, are based on a 0 to 100 scale where 0 is no effect and 100 is complete control. A dash (-) response means no test result.

[20] = tested on: rice; assay: Test D flooded paddy test; type: in vivo, Oryza sativa; details: 250 g ai/ha, applied to paddy water, visual rating after 13 to 14 days, scale 0 to 100 (0 no effect, 100 complete control)
How it was run: as §1

[21] = tested on: ducksalad; assay: Test D flooded paddy test; type: in vivo, Heteranthera limosa; details: 250 g ai/ha, applied to paddy water, visual rating after 13 to 14 days, scale 0 to 100 (0 no effect, 100 complete control)
How it was run: as §1

[22] = tested on: soybean; assay: Test C postemergence; type: in vivo, Glycine max; details: 10 days, 0 to 100 scale (0 no effect, 100 complete control)
How it was run: as §2

[23] = tested on: ryegrass, Italian; assay: Test C preemergence; type: in vivo, Lolium multiflorum
How it was run: as §2

[24] = tested on: pigweed, palmer; assay: Test C postemergence; type: in vivo, Amaranthus palmeri; details: 10 days, 0 to 100 scale (0 no effect, 100 complete control)
How it was run: as §2

[25] = tested on: foxtail, giant; assay: Test C postemergence; type: in vivo, Setaria faberi; details: 10 days, 0 to 100 scale (0 no effect, 100 complete control)
From the text: as §3

[26] = tested on: pigweed, palmer; assay: Test C preemergence; type: in vivo, Amaranthus palmeri
How it was run: as §2

[27] = tested on: corn; assay: Test C postemergence; type: in vivo, Zea mays; details: 10 days, 0 to 100 scale (0 no effect, 100 complete control)
How it was run: as §2

[28] = 500 g ai/ha, preemergence, 0 to 100 scale (0 no effect, 100 complete control)
[29] = Preemergence, 125 g ai/ha, 0 to 100 scale, 0 no effect, 100 complete control

COc1ccc(-n2cnc(C3CCC3)n2)cc1C(=O)N1C[C@H](C)Oc2c(Cl)cccc21 [Compound 323]
Plant response rating, Barnyardgrass (Flood) [1]: 30
Soybean plant response rating [2, 28]: 80
Plant response rating, Soybean [2, 29]: 50
Plant response rating, Galium ([3]; 500 g ai/ha, postemergence): 100
Plant response rating, Galium ([3]; Postemergence, 125 g ai/ha): 100
Oat, Wild plant response rating [4, 28]: 70
Plant response rating, Oat, Wild [4, 29]: 20
Plant response rating, Kochia ([5]; 500 g ai/ha, postemergence): 90
Plant response rating, Kochia ([5]; Postemergence, 125 g ai/ha): 90
Kochia plant response rating [6, 28]: 100
Plant response rating, Kochia [6, 29]: 90
Plant response rating, Barnyardgrass ([7]; 500 g ai/ha, postemergence): 60
Plant response rating, Barnyardgrass ([7]; Postemergence, 125 g ai/ha): 30
Plant response rating, Horseweed ([8]; 500 g ai/ha, postemergence): 40
Plant response rating, Horseweed ([8]; Postemergence, 125 g ai/ha): 30
Plant response rating, Sedge, Umbrella (Flood) [9]: 70
Plant response rating, Blackgrass ([10]; 500 g ai/ha, postemergence): 90
Plant response rating, Blackgrass ([10]; Postemergence, 125 g ai/ha): 50
Plant response rating, Ragweed ([11]; 500 g ai/ha, postemergence): 70
Plant response rating, Ragweed ([11]; Postemergence, 125 g ai/ha): 60
Barnyardgrass plant response rating [12, 28]: 100
Plant response rating, Barnyardgrass [12, 29]: 70
Wheat plant response rating [13, 28]: 80
Plant response rating, Wheat [13, 29]: 60
Plant response rating, Oat, Wild ([14]; 500 g ai/ha, postemergence): 20
Plant response rating, Oat, Wild ([14]; Postemergence, 125 g ai/ha): 20
Plant response rating, Wheat ([15]; 500 g ai/ha, postemergence): 20
Plant response rating, Wheat ([15]; Postemergence, 125 g ai/ha): 20
Plant response rating, Ryegrass, Italian ([16]; 500 g ai/ha, postemergence): 60
Plant response rating, Ryegrass, Italian ([16]; Postemergence, 125 g ai/ha): 10
Ragweed plant response rating [17, 28]: 100
Plant response rating, Ragweed [17, 29]: 30
Blackgrass plant response rating [18, 28]: 80
Plant response rating, Blackgrass [18, 29]: 70
Foxtail, Giant plant response rating [19, 28]: 100
Plant response rating, Foxtail, Giant [19, 29]: 90
Plant response rating, Rice (Flood) [20]: 0
Plant response rating, Ducksalad (Flood) [21]: 30
Plant response rating, Soybean ([22]; 500 g ai/ha, postemergence): 100
Plant response rating, Soybean ([22]; Postemergence, 125 g ai/ha): 100
Ryegrass, Italian plant response rating [23, 28]: 80
Plant response rating, Ryegrass, Italian [23, 29]: 70
Plant response rating, Pigweed, Palmer ([24]; 500 g ai/ha, postemergence): 100
Plant response rating, Pigweed, Palmer ([24]; Postemergence, 125 g ai/ha): 80
Plant response rating, Foxtail, Giant ([25]; 500 g ai/ha, postemergence): 90
Plant response rating, Foxtail, Giant ([25]; Postemergence, 125 g ai/ha): 20
Pigweed, Palmer plant response rating [26, 28]: 100
Plant response rating, Pigweed, Palmer [26, 29]: 100
Plant response rating, Corn ([27]; 500 g ai/ha, postemergence): 50
Plant response rating, Corn ([27]; Postemergence, 125 g ai/ha): 10
